Test results taken from patent publication US10100335B2, “Microbial production of branched medium chain alcohols, such as 4-methylpentanol” (Massachusetts Institute of Technology, priority 2013, dated 2018).
Converted amounts (≈) assume the structure as drawn.

Key:
[1] = molecular target: T1, CarNi (Nocardia iowensis carboxylic acid reductase) (Nocardia iowensis, UniProt Q6RKB1); format: biochemical; conditions: for observed CarNi activity relative to activity on 4-methyl-valerate: in vitro, his-purified CarNi, 50 mM acid substrate; for CarNi activity on aliphatic acid substrate: 13 straight and branched acids from C2-C8
T1 construct: made in house; host or cells: E. coli BL21 Star (DE3) harboring pET/His-Car-RBS2-Sfp
Experimental: Strain M4 expressing car-sfp-ADH6 was fed five different acids at 10 mM initial concentration. Selectivity was determined by measuring normalized titers 5 hours post induction of gene expression. […] Initial rates were measured by monitoring NADPH consumption by measuring absorption at 340 nm.
Assays were devised to confirm activity on desired substrates in vitro and in vivo. In the first, N-terminal his-tagged CarNi was purified and assayed by UV absorption of NADPH with 13 straight and branched acids from C2-C8. […] A complementary in vivo assay was designed to examine the effectiveness of the Module 4 pairing. Butyrate, valerate. 3-methyl-valerate, 4-methyl-valerate, and hexanoate were fed to E. coli cultures expressing CarNi/ADH6Sc and conversion was monitored by sampling the culture media and liquid chromatography (LC).
Relative Activity Assay for Purified his-Car: An overnight culture of BL21 Star (DE3) (Invitrogen) harboring pET/His-Car-RBS2-Sfp was used as 10% (v/v) inoculum in 2 L of LB Broth. The culture was incubated at 30° C. and 250 rpm, and expression was induced using a final concentration of 1 mM IPTG at OD 0.6. Cells were harvested after 20 hours using centrifugation and resuspended in a buffer containing 50 mM Tris-HCl pH 8.0, 300 mM NaCl, and 10% glycerol. Cells were subsequently lysed using sonication. The supernatant was collected and applied to a column containing Ni-NTA resin (Qiagen). Affinity chromatography was performed using step-wise increasing concentrations of imidazole. Fractions containing purified His6-Car were dialyzed overnight at 4° C. into 50 mM Tris-HCl pH 7.5, 50 mM NaCl, 1 mM DTT, and 10% glycerol. Dialyzed enzyme was then flash frozen using liquid nitrogen and stored at −80° C. The activity of His-Car on various substrates was determined by changes in absorbance at 340 nm for up to 5 minutes in 96-well microplates using a plate reader (Tecan Infinite F200 Pro). Reactions were prepared as follows: 100 mM Tris-HCl pH 7.5, 10 mM MgCl2, 0.6 mM NADPH, 1 mM ATP, 224 nM His-Car, and 50 mM pH neutralized acid substrate. Changes in absorbance at 340 nm were detected using a filter. All substrates were assayed in triplicate. For KM and Vmax determinations, substrates were assayed at 5 different concentrations.

MG1655(DE3) endA recA = experiment: Toxicity of exogenously added alcohols on exponential growth rate; format: cell-based, E. coli; conditions: for reduction in growth rate: 10 mM alcohol in LB medium with 1.2% glucose
Experimental: The exponential growth rate was unchanged by 4-methyl-1-pentanol concentrations exceeding those observed in final titers (193±23 mg/L) for the high producing Strain M1Fj(IA)2I34. The highest 4-methyl-1-pentanol concentration (10 mM, 1022 mg/L) did lead to a reduction in growth rate of 40%. […] If higher titers of 4-methyl-1-pentanol are achieved, in situ gas stripping or simple phase separation could potentially be used to extract 4-methyl-1-pentanol from the culture medium (Lee 1994).
Duplicate 3 ml cultures in LB+1.2% glucose+alcohol were inoculated to an initial OD600 of 0.1. Cultures were contained in the same 50 ml screw-cap tubes used in production experiments. […] Growth was monitored by optical density and the growth rate was calculated from a linear regression of the natural log of the OD600 values for the 1.5, 2, and 2.5 hour post-inoculation time points.

[2] = cited from earlier work

T1 sequence (Q6RKB1 whole entry): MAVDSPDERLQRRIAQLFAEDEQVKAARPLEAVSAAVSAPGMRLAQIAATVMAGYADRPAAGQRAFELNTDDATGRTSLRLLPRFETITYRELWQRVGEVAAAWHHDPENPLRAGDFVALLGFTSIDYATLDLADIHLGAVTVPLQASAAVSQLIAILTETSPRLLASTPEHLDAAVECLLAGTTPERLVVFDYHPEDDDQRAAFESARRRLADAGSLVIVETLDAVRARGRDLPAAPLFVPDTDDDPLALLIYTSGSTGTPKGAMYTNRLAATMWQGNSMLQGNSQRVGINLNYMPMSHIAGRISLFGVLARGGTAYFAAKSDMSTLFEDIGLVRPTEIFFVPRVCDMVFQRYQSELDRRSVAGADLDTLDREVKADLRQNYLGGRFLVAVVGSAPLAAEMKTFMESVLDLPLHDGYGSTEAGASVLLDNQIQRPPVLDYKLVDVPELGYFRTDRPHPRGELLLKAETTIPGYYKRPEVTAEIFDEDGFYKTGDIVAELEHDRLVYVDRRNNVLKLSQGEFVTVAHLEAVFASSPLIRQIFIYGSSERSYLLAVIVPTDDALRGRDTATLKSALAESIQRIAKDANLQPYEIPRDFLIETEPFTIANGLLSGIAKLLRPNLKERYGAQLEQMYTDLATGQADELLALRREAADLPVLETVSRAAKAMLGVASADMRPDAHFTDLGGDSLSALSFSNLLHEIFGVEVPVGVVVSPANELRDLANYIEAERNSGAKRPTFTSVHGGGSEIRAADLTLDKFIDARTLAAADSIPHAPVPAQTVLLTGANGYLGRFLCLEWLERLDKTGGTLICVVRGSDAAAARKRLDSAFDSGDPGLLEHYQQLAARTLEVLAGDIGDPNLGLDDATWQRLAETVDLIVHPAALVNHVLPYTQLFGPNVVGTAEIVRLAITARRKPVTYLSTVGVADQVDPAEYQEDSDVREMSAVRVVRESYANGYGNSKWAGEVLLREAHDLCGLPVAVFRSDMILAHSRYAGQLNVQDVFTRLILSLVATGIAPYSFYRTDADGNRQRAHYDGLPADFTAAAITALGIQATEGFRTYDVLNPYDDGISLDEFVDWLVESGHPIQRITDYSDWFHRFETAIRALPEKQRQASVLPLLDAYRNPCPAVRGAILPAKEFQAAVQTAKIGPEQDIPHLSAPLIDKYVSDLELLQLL

Row | SMILES | observed CarNi activity relative to activity on 4-methyl-valerate [1] | CarNi activity on aliphatic acid substrate [1] | reduction in growth rate (MG1655(DE3) endA recA) | effect on exponential growth rate (MG1655(DE3) endA recA; concentrations up to 5 mM) | other results
1 | CCCC(=O)O [butyrate] | 56% |  |  |  | 
2 | CC(=O)O [acetate] |  | reduced activity |  |  | 
3 | CC(C)C(=O)O [isobutyrate] | 25% | reduced activity |  |  | Km ([1]; purified His-CarNi, initial rates by NADPH consumption at 340 nm): 78 ± 9 mM
4 | CCC(C)CCC(=O)O (stereo not drawn) [4-methyl-hexanoate] |  | highest activity |  |  | 
5 | CC(C)CO [isobutanol] |  |  | 10% | did not inhibit | 
6 | CC(C)CCCO [4-methyl-1-pentanol] |  |  | 40% | did not inhibit | effect on exponential growth rate (MG1655(DE3) endA recA; concentrations exceeding those observed in final titers (193±23 mg/L)): unchanged; solubility in water [2]: 7400 µg/mL (≈ 72.4 mM)
